Laboratory results from US12667559B2, “Dihydronaphthyridinone compound, and preparation method therefor and medical use thereof” (GENFLEET THERAPEUTICS (SHANGHAI) INC., priority 2020, dated 2026).
pIC50: −log10 of the molar value. Where two headings read alike, the source gives them in different places.

System: U937 cells
Experiment: Inhibitory activity against TNF-α induced programmed cell necrosis (U937 cells, CellTiter-Glo)
Assay type: cell-based, human
Settings: U937 cells, human TNF-α and Q-VD-Oph induced necrosis, 48 hours, survival rate, read-out: U937 IC50

## O=C(CO)Nc1cn2nc(-c3cnc4c(c3)C(=O)N(Cc3cc(F)cc(F)c3OC3CCOCC3)CC4)ccc2n1 [Z39, N-(6-(6-(3,5-difluoro-2-((tetrahydro-2H-pyran-4-yl)oxy)benzyl)-5-oxo-5,6,7,8-tetrahydro-1,6-naphthyridin-3-yl)imidazo[1,2-b]pyridazin-2-yl)-2-hydroxyacetamide]
Homo sapiens, U-937, 48 h
  pIC50: 9.05

## Nc1nc2cc(-c3cnc4c(c3)C(=O)N(Cc3ccccc3OC(F)(F)F)CC4)ccn2n1 [Z44, 3-(2-amino-[1,2,4]triazolo[1,5-a]pyridyl-7-yl)-6-(2-(trifluoromethoxy)benzyl)-7,8-dihydro-1,6-naphthyridin-5(6H)-one]
U-937
  pIC50: 7.38

## CC(c1ccccc1OC(F)(F)F)N1CCc2ncc(-c3ccn4nc(N)nc4c3)cc2C1=O (stereo not drawn) [Z46, 3-(2-amino-[1,2,4]triazolo[1,5-a]pyridyl-7-yl)-6-(1-(2-(trifluoromethoxy)phenyl)ethyl)-7,8-dihydro-1,6-naphthyridin-5(6H)-one]
U-937
  pIC50: 8.15

## C[C@@H](c1ccccc1OC(F)(F)F)N1CCc2ncc(-c3ccn4nc(N)nc4c3)cc2C1=O [Z46-1, (S)-3-(2-amino-[1,2,4]triazolo[1,5-a]pyridyl-7-yl)-6-(1-(2-(trifluoromethoxy)phenyl)ethyl)-7,8-dihydro-1,6-naphthyridin-5(6H)-one]
Homo sapiens, U-937, 48 h
  pIC50: 8.13

## C[C@H](c1ccccc1OC(F)(F)F)N1CCc2ncc(-c3ccn4nc(N)nc4c3)cc2C1=O [Z46-2, (R)-3-(2-amino-[1,2,4]triazolo[1,5-a]pyridyl-7-yl)-6-(1-(2-(trifluoromethoxy)phenyl)ethyl)-7,8-dihydro-1,6-naphthyridin-5(6H)-one]
Homo sapiens, U-937, 48 h
  pIC50: 6.01

## Nc1nc2cc(-c3cnc4c(c3)C(=O)N(Cc3cc(OC(F)(F)F)ccc3F)CC4)ccn2n1 [Z48, 3-(2-amino-[1,2,4]triazolo[1,5-a]pyridyl-7-yl)-6-(2-fluoro-5-(trifluoromethoxy)benzyl)-7,8-dihydro-1,6-naphthyridin-5(6H)-one]
U-937
  pIC50: 8.22

## CC(=O)Nc1nc2cc(-c3cnc4c(c3)C(=O)N(C(C)c3ccccc3OC(F)(F)F)CC4)ccn2n1 (stereo not drawn) [Z49, N-(7-(5-oxo-6-(1-(2-(trifluoromethoxy)phenyl)ethyl)-5,6,7,8-tetrahydro-1,6-naphthyridin-3-yl)-[1,2,4]triazolo[1,5-a]pyridyl-2-yl)acetamide]
  pIC50: 7.59

## Nc1nc2cc(-c3cnc4c(c3)C(=O)N(Cc3cccc(OC(F)(F)F)c3)CC4)ccn2n1 [Z50, 3-(2-amino-[1,2,4]triazolo[1,5-a]pyridyl-7-yl)-6-(3-(trifluoromethoxy)benzyl)-7,8-dihydro-1,6-naphthyridin-5(6H)-one]
U-937
  pIC50: 7.40

## Nc1nc2cc(-c3cnc4c(c3)C(=O)N(c3cnn(Cc5ccc(F)cc5)c3)CC4)ccn2n1 [Z52, 3-(2-amino-[1,2,4]triazolo[1,5-a]pyridyl-7-yl)-6-(1-(4-fluorobenzyl)-1H-pyrazol-4-yl)-7,8-dihydro-1,6-naphthyridin-5(6H)-one]
Homo sapiens, U-937, 48 h
  pIC50: 7.72

## Nc1nc2cc(-c3cnc4c(c3)C(=O)N(Cc3cc(F)ccc3CN3CCOCC3)CC4)ccn2n1 [Z54, 3-(2-amino-[1,2,4]triazolo[1,5-a]pyridyl-7-yl)-6-(5-fluoro-2-(morpholinomethyl)benzyl)-7,8-dihydro-1,6-naphthyridin-5(6H)-one]
Homo sapiens, U-937, 48 h
  pIC50: 7.92

## CC(c1cc(F)ccc1OC(F)(F)F)N1CCc2ncc(-c3ccn4nc(N)nc4c3)cc2C1=O (stereo not drawn) [Z55, 3-(2-amino-[1,2,4]triazolo[1,5-a]pyridyl-7-yl)-6-(1-(5-fluoro-2-(trifluoromethoxy)phenyl)ethyl)-7,8-dihydro-1,6-naphthyridin-5(6H)-one]
U-937
  pIC50: 8.10

## Nc1nc2cc(-c3cc4c(nc3Cl)CCN(Cc3cc(OC(F)(F)F)ccc3F)C4=O)ccn2n1 [Z56, 3-(2-amino-[1,2,4]triazolo[1,5-a]pyridyl-7-yl)-2-chloro-6-(2-fluoro-5-(trifluoromethoxy)benzyl)-7,8-dihydro-1,6-naphthyridin-5(6H)-one]
  pIC50: 8.40

## Cc1nc2c(cc1-c1ccn3nc(N)nc3c1)C(=O)N(Cc1cc(OC(F)(F)F)ccc1F)CC2 [Z57, 3-(2-amino-[1,2,4]triazolo[1,5-a]pyridyl-7-yl)-6-(2-fluoro-5-(trifluoromethoxy)benzyl)-2-methyl-7,8-dihydro-1,6-naphthyridin-5(6H)-one]
Homo sapiens, U-937, 48 h
  pIC50: 8.70

## CNc1nc2cc(-c3cnc4c(c3)C(=O)N(Cc3cc(OC(F)(F)F)ccc3F)CC4)ccn2n1 [Z59, 6-(2-fluoro-5-(trifluoromethoxy)benzyl)-3-(2-(methylamino)-[1,2,4]triazolo[1,5-a]pyridyl-7-yl)-7,8-dihydro-1,6-naphthyridin-5(6H)-one]
U-937
  pIC50: 7.92

## CC(c1cc(OC(F)(F)F)ccc1F)N1CCc2ncc(-c3ccn4nc(N)nc4c3)cc2C1=O (stereo not drawn) [Z60, 3-(2-amino-[1,2,4]triazolo[1,5-a]pyridyl-7-yl)-6-(1-(2-fluoro-5-(trifluoromethoxy)phenyl)ethyl)-7,8-dihydro-1,6-naphthyridin-5(6H)-one]
U-937
  pIC50: 6.79

## Nc1nc2cc(-c3cnc4c(c3)C(=O)N(Cc3ncccc3OCC3CC3)CC4)ccn2n1 [Z61, 3-(2-amino-[1,2,4]triazolo[1,5-a]pyridyl-7-yl)-6-((3-(cyclopropylmethoxy)pyridyl-2-yl)methyl)-7,8-dihydro-1,6-naphthyridin-5(6H)-one]
U-937
  pIC50: 7.85

## Nc1nc2cc(-c3cnc4c(c3)C(=O)N(Cc3ncccc3OC3CCOCC3)CC4)ccn2n1 [Z62, 3-(2-amino-[1,2,4]triazolo[1,5-a]pyridin-7-yl)-6-((3-((tetrahydro-2H-pyran-4-yl)oxy)pyridin-2-yl)methyl)-7,8-dihydro-1,6-naphthyridin-5(6H)-one]
U-937
  pIC50: 7.89

## CC(c1ccc(F)cc1)n1cc(N2CCc3ncc(-c4ccn5nc(N)nc5c4)cc3C2=O)cn1 (stereo not drawn) [Z64]
  pIC50: 8.70

## Nc1nc2cc(-c3cnc4c(c3)C(=O)N(Cc3cc(F)ccc3OC3CCOCC3)CC4)ccn2n1 [Z65]
Homo sapiens, U-937, 48 h
  pIC50: 9.30

## Nc1nc2cc(-c3cnc4c(c3)C(=O)N(Cc3cc(F)ccc3OC3CCOC3)CC4)ccn2n1 (stereo not drawn) [Z66]
Homo sapiens, U-937, 48 h
  pIC50: 8.64

## Nc1nc2cc(-c3cnc4c(c3)C(=O)N(Cc3cc(F)cc(F)c3OCC3CC3)CC4)ccn2n1 [Z67]
Homo sapiens, U-937, 48 h
  pIC50: 9.30

## Nc1nc2cc(-c3cnc4c(c3)C(=O)N(Cc3ccccc3OC3CC3)CC4)ccn2n1 [Z68]
Homo sapiens, U-937, 48 h
  pIC50: 8.37

## Nc1nc2cc(-c3cnc4c(c3)C(=O)N(Cc3cc(F)cc(F)c3OC3CCOCC3)CC4)ccn2n1 [Z70]
Homo sapiens, U-937, 48 h
  pIC50: 9.40

## Nc1nc2cc(-c3cnc4c(c3)C(=O)N(Cc3cc(F)cc(F)c3OC3CCOC3)CC4)ccn2n1 (stereo not drawn) [Z71]
Homo sapiens, U-937, 48 h
  pIC50: 8.96

## Nc1nc2cc(-c3cnc4c(c3)C(=O)N(Cc3cc(C(F)(F)F)ccc3F)CC4)ccn2n1 [Z72]
Homo sapiens, U-937, 48 h
  pIC50: 7.09

## Nc1nc2cc(-c3cnc4c(c3)C(=O)N(Cc3cc(F)ccc3OC3CC3)CC4)ccn2n1 [Z76]
Homo sapiens, U-937, 48 h
  pIC50: 8.39

## Nc1nc2cc(-c3cnc4c(c3)C(=O)N(Cc3cccnc3OC3CC3)CC4)ccn2n1 [Z77]
Homo sapiens, U-937, 48 h
  pIC50: 6.84

## Nc1nc2cc(-c3cnc4c(c3)C(=O)N(Cc3ncccc3OC3CC3)CC4)ccn2n1 [Z78]
Homo sapiens, U-937, 48 h
  pIC50: 7.23

## Nc1nc2cc(-c3cnc4c(c3)C(=O)N(Cc3cc(F)ccc3OC3COC3)CC4)ccn2n1 [Z79]
Homo sapiens, U-937, 48 h
  pIC50: 7.32

## CC(c1cc(F)ccc1-c1cnn(C)c1)N1CCc2ncc(-c3ccn4nc(N)nc4c3)cc2C1=O (stereo not drawn) [Z80, 3-(2-amino-[1,2,4]triazolo[1,5-a]pyridyl-7-yl)-6-(1-(5-fluoro-2-(1-methyl-1H-pyrazol-4-yl)phenyl)ethyl)-7,8-dihydro-1,6-naphthyridin-5(6H)-one]
  pIC50: 7.70

## Cc1nc2c(cc1-c1ccn3nc(N)nc3c1)C(=O)N(Cc1ncccc1OC1CC1)CC2 [Z93]
Homo sapiens, U-937, 48 h
  pIC50: 7.89

## O=C(COCc1ccccc1)Nc1cn2nc(-c3cnc4c(c3)C(=O)N(Cc3cc(F)cc(F)c3OC3CCOCC3)CC4)ccc2n1 [Z94, 2-(Benzoxy)-N-(6-(6-(3,5-difluoro-2-((tetrahydro-2H-pyran-4-yl)oxy)benzyl)-5-oxo-5,6,7,8-tetrahydro-1,6-naphthyridin-3-yl)imidazo[1,2-b]pyridazin-2-yl)acetamide]
Homo sapiens, U-937, 48 h
  pIC50: 8.60

## CCOC(=O)C(=O)Nc1cn2nc(-c3cnc4c(c3)C(=O)N(Cc3cc(F)cc(F)c3OC3CCOCC3)CC4)ccc2n1 [Z96, ethyl 2-((6-(6-(3,5-difluoro-2-((tetrahydro-2H-pyran-4-yl)oxy)benzyl)-5-oxo-5,6,7,8-tetrahydro-1,6-naphthyridin-3-yl)imidazo[1,2-b]pyridazin-2-yl)amino)-2-oxoacetate]
Homo sapiens, U-937, 48 h
  pIC50: 8.77

## Cc1cc(-c2cnc3c(c2)C(=O)N(c2cnn(C(C)c4ccc(F)cc4)c2)CC3)n2ncnc(N)c12 (stereo not drawn) [Z97]
Homo sapiens, U-937, 48 h
  pIC50: 9.70

## Cc1c(-c2cnc3c(c2)C(=O)N(Cc2ncccc2OC2CC2)CC3)ccn2nc(N)nc12 [Z98, 3-(2-amino-8-methyl-[1,2,4]triazolo[1,5-a]pyridyl-7-yl)-6-((3-cyclopropoxypyridyl-2-yl)methyl)-7,8-dihydro-1,6-naphthyridin-5(6H)-one]
Homo sapiens, U-937, 48 h
  pIC50: 6.38

## Nc1nc2cc(-c3cnc4c(c3)C(=O)N(Cc3cc(F)ccc3OC(F)(F)F)CC4)ccn2n1 [Z102, 3-(2-amino-[1,2,4]triazolo[1,5-a]pyridyl-7-yl)-6-(5-fluoro-2-(trifluoromethoxy)benzyl)-7,8-dihydro-1,6-naphthyridin-5(6H)-one]
Homo sapiens, U-937, 48 h
  pIC50: 7.68
